In patent publication US20240329286A1, “LIGHT ABSORPTION FILTER, OPTICAL FILTER, MANUFACTURING METHOD FOR OPTICAL FILTER, ORGANIC ELECTROLUMINESCENT DISPLAY DEVICE, INORGANIC ELECTROLUMINESCENT DISPLAY DEVICE, AND LIQUID CRYSTAL DISPLAY DEVICE” (FUJIFILM Corporation, priority 2022, published 2024):

assay: pKaH (pKa of the conjugate acid) by titration with sodium hydroxide aqueous solution; assay type: physicochemical; conditions: water/methanol=50/50 (volume ratio), 25° C.
Description: The pKa can be calculated by dropwise adding a 0.01 mol/L sodium hydroxide aqueous solution to a mixed solution of water/methanol=50/50 (in terms of volume ratio) of a measurement sample (a conjugate acid of the compound B) and reading the amount of the sodium hydroxide aqueous solution that has been dropwise added up to the half-equivalent point.

pKaH | SMILES
4.3 | c1ccc(-c2ccnc3ccccc23)cc1 [4-Phenylquinoline]

same assay, conditions: water/methanol=50/50 (volume ratio), 25° C., Table 2

pKaH of compound B | SMILES
5.7 | Cc1cc(C)c2ccccc2n1 [2,4-dimethylquinoline]
4.8 | Cc1ccc2ccccc2n1 [2-methylquinoline]
5.2 | Cc1cc2ccccc2cn1 [3-methylisoquinoline]
5.1 | Cc1ccnc2ccccc12 [4-methylquinoline]
4.7 | c1ccc2cnccc2c1 [Isoquinoline]
4.2 | c1ccc2ncccc2c1 [Quinoline]
